# In US20240285552A1 (priority 2020, published 2024):
# Entries after “also recorded” stand apart in the source; their conditions may differ. Counter-ions that a name gives are not always drawn. Like-named read-outs stand apart in the source and are kept apart here.
# What was measured:
# [1] = target: T1, recombinant human ACE2 (rhACE2) (Homo sapiens, UniProt Q9BYF1); assay: ACE2 exopeptidase inhibitor screening assay (fluorogenic substrate), AMB and BHH; assay type: biochemical
# T1 construct: purchased BPS Bioscience 79923
# T1 sequence (Q9BYF1 18-805): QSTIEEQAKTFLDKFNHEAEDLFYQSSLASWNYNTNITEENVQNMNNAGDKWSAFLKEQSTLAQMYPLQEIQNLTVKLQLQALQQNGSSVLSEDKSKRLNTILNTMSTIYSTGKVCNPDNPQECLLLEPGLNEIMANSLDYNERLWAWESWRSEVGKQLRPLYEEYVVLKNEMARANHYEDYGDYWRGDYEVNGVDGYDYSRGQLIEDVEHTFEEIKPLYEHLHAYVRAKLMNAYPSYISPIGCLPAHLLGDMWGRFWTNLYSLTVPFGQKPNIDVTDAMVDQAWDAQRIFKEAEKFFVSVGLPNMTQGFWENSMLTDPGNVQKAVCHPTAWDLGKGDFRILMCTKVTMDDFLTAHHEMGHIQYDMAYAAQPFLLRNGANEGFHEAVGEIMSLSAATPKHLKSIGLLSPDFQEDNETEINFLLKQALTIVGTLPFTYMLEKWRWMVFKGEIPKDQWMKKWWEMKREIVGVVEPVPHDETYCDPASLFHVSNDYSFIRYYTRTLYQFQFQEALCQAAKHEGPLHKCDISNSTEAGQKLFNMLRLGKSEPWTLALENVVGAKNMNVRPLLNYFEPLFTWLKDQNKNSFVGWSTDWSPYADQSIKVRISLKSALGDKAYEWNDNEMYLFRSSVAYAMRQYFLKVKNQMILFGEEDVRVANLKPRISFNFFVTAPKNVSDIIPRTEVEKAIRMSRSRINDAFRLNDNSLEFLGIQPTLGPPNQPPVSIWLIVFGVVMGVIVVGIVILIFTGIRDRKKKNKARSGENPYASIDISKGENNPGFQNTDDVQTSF
# Procedure: ACE2 Inhibitor Screening Assay. An ACE2 exopeptidase Inhibitor screening assay kit with the fluorogenic substrate (Catalogue #79923) was purchased from BPS Bioscience (San Diego, CA) and modified to measure the exopeptidase activity of ACE2 in the presence and absence of inhibitors (BPSBioscience, 2022). Following the manufacturer's directions, the fluorescence assay was carried out in a 96-well black flat-bottom plate with a final reaction volume of 50 μL. 50 mM stock solutions of BHH and AMB in 100% DMSO were prepared. Compounds were serially diluted in DMSO as follows: 500, 250, 100, 50, 10, 1, 0.1 μM. All experiments were done in triplicates and repeated twice. A positive control of enzyme treated with vehicle alone (2 percent DMSO) and a blank control with no enzyme were included on each plate.
# Each reaction had 24 μL of purified recombinant human ACE2 protein (0.42 ng/L) in ACE2 buffer, 1 μL of the compound at different concentrations, and 25 μL ACE2 fluorogenic substrate. The final volume of the reaction was 50 μL. The reaction mixtures were incubated for 1 hr at room temperature (22° C.) and protected from light. After that, the fluorescence intensities (λExcitation=535 nm, λEmission=595 nm) were measured using a Spectramax iD3 multimode plate reader. The background hydrolysis was subtracted, and the data were fitted to a four-parameter logistic (variable slope) equation using GraphPad prism software 9.1.
# [2] = system: SARS-CoV-2 spike pseudotyped lentivirus; assay: microbe, parasite or virus in culture; assay type: cell-based; details: for Percent Inhibition of fusion of SARS-CoV-2 spike pseudotyped lentivirus with HEK293-ACE2 cells: hydrochloride
# SARS-CoV-2 USA_WA1/2020 [3] = assay: microbe, parasite or virus in culture; assay type: cell-based
# [4] = target: T2, rhACE2 and SARS-CoV-2 Spike (RBD) protein interaction (Homo sapiens, UniProt Q9BYF1); assay: Spike (RBD)-ACE2 binding assay (ELISA); parameters: species or system human; SARS-CoV-2; details: for IC50: bell-shaped model, AMB, BHH
# T2 construct: purchased RayBiotech CoV-SACE2-1
# T2 sequence (Q9BYF1 18-740): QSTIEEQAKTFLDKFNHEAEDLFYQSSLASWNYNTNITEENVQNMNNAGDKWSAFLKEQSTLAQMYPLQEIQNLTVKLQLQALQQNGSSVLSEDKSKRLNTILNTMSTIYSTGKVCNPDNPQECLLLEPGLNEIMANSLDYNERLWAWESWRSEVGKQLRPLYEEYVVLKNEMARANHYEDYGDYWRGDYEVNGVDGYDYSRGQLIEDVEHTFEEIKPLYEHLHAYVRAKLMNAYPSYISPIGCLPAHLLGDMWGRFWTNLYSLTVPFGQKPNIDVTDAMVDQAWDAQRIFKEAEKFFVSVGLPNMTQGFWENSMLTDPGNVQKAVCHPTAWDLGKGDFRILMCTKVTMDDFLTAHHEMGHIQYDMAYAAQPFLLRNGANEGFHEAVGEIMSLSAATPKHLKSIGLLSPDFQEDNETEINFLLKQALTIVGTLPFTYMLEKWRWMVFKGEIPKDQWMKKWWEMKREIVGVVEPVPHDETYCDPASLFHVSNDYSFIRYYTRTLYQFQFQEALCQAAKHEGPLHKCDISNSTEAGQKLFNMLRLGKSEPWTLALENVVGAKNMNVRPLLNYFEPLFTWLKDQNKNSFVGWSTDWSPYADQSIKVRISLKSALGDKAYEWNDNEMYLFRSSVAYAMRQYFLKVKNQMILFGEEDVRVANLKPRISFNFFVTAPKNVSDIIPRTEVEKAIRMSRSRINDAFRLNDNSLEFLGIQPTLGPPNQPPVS
# ACE1 = assay: Western blotting, ACE1 expression in A549 cells; assay type: cell-based, human; details: 50 μm, 24 hrs and 48 hrs
# Procedure: (§1) Western blotting. A549 “Lung” cells (RRID:CVCL_COQ5) were harvested in a radioimmuno precipitation assay (RIPA) buffer (Tris 10 mM pH 7.4, containing 140 mM NaCl, 1 mM EDTA, 1 mM NaF, 0.10% SDS, 0.50% sodium deoxycholate 0.1% NP-40, 1% Triton X-100) in the presence of protease inhibitors (Thermo Fisher) at 24 hrs. and 48 hrs. Protein concentration was determined by was determined using bicinchoninic acid with bovine serum albumin as a standard (Thermo Fisher). Equal amounts of protein were loaded and separated by SDS-PAGE using 10% pre-casted gels (Biorad). Proteins were electroblotted onto nitrocellulose membranes (Bio-Rad). The blots were blocked using 5% (w/v) milk in Tris-buffered saline containing 0.5% (v/v) Tween-20. The membranes were then incubated with different antibodies. Antibodies directed against ACE1 (ab28311) and ACE2 (ab108209) were used and the GAPDH antibody was used as loading control for cell lysates. Primary and secondary antibodies were diluted in Tris-buffered saline containing (0.5% v/v) Tween-20 (TBS-T) supplemented with 5% milk. The bands were visualized by incubating the blots with enhanced chemiluminescence reagent (ECL, Biorad) and visualized using chemidoc. Band intensities were quantified by using imagelab software Biorad.
# ACE2 = assay: Western blotting, ACE2 expression in A549 cells; assay type: cell-based, human; details: 50 μm, 24 hrs and 48 hrs, hydrochloride
# Procedure: as §1
# Vero E6 cells = details: Vero E6; at 30 μM; Example B
# SARS-CoV-2 USA_WA1/2020 [5] = details: hamster
# in vitro = details: African green monkey
smiles,measurement,setting,value
"CN(Cc1cc(Br)cc(Br)c1N)C1CCCCC1 [BHH, Bromhexine hydrochloride]",ACE2 Exopeptidase Activity: Percent Activity,[1]; 0.1 uM,111.3%
same,inhibition at 0.1 µM,"[1]; 0.1 uM, read-out: ACE2 Exopeptidase Activity: Percent Inhibition",-11.3%
same,ACE2 Exopeptidase Activity: Percent Activity,[1]; 1 uM,114.7%
same,inhibition at 1 µM,"[1]; 1 uM, read-out: ACE2 Exopeptidase Activity: Percent Inhibition",-14.7%
same,ACE2 Exopeptidase Activity: Percent Activity,[1]; 10 uM,104.6%
same,inhibition at 10 µM,"[1]; 10 uM, read-out: ACE2 Exopeptidase Activity: Percent Inhibition",-4.6%
same,ACE2 Exopeptidase Activity: Percent Activity,[1]; 50 uM,2.7%
same,inhibition at 50 µM,"[1]; 50 uM, read-out: ACE2 Exopeptidase Activity: Percent Inhibition",97.3%
same,ACE2 Exopeptidase Activity: Percent Activity,[1]; 100 uM,−6.2%
same,inhibition at 100 µM,"[1]; 100 uM, read-out: ACE2 Exopeptidase Activity: Percent Inhibition",106%
same,ACE2 Exopeptidase Activity: Percent Activity,[1]; 250 uM,−6.7%
same,inhibition at 250 µM,"[1]; 250 uM, read-out: ACE2 Exopeptidase Activity: Percent Inhibition",107%
same,ACE2 Exopeptidase Activity: Percent Activity,[1]; 500 uM,−6.6%
same,inhibition at 500 µM,"[1]; 500 uM, read-out: ACE2 Exopeptidase Activity: Percent Inhibition",107%
same,IC50,"[1]; read-out: IC50, exopeptidase function of ACE2",26 µM
same,effect on exopeptidase activity of rhACE2,"[1]; tested 0.1 to 500 μM, hydrochloride",completely inhibited
same,Percent Inhibition of fusion of SARS-CoV-2 spike pseudotyped lentivirus with HEK293-ACE2 cells,"[2]; 50 μM, Table 3",61%
same,Percent Inhibition of fusion of SARS-CoV-2 spike pseudotyped lentivirus with HEK293-ACE2 cells,"[2]; 100 μM, Table 3",76%
same,inhibition at 50 µM,"[2]; Severe acute respiratory syndrome coronavirus 2, 50 μM, Table 3, read-out: Percent Inhibition of fusion of SARS-CoV-2 spike pseudotyped lentivirus with HEK293-ACE2 cells",57%
same,inhibition at 100 µM,"[2]; Severe acute respiratory syndrome coronavirus 2, 100 μM, Table 3, read-out: Percent Inhibition of fusion of SARS-CoV-2 spike pseudotyped lentivirus with HEK293-ACE2 cells",73%
same,inhibition at 10 µM,"[2]; Severe acute respiratory syndrome coronavirus 2, HEK293, 10 μM, Table 2, read-out: Percent (%) Inhibition of Pseudo virus Entry in HEK293 Kidney Cells, SARS-COV-2",50%
same,inhibition at 100 µM,"[2]; Severe acute respiratory syndrome coronavirus 2, HEK293, 100 μM, Table 2, read-out: Percent (%) Inhibition of Pseudo virus Entry in HEK293 Kidney Cells, SARS-COV-2",≤ 100%
same,Concentration at Maximum % Inhibition,SARS-CoV-2 USA_WA1/2020 [3]; Example C (Table 3),37.5 µM
same,Maximum Inhibition,SARS-CoV-2 USA_WA1/2020 [3]; Example C (Table 3),72.39%
same,IC50,"SARS-CoV-2 USA_WA1/2020 [3]; Severe acute respiratory syndrome coronavirus 2, Vero C1008, Example C (Table 3), read-out: IC 50 against SARS-COV-2 Induced Cytopathic Effect in Vero E6 Cells",~31.6 µM
same,IC50,"SARS-CoV-2 USA_WA1/2020 [3]; Severe acute respiratory syndrome coronavirus 2, Vero C1008, Vero E6, Example B, highest concentration tested 30 μM, read-out: IC50 against SARS-CoV-2 infection induced CPE",~21.7 µM
same,inhibition at 30 µM,"SARS-CoV-2 USA_WA1/2020 [3]; Severe acute respiratory syndrome coronavirus 2, Vero C1008, at 30 μM, Example B, read-out: inhibition of SARS-CoV-2 induced CPE at maximum concentration",~91.1%
same,EC50,"SARS-CoV-2 USA_WA1/2020 [3]; Severe acute respiratory syndrome coronavirus 2, Vero C1008, read-out: EC50 values against SARS-CoV-2 (summary statement)",~30 µM
same,effect on Spike (RBD)-rhACE2 interaction,"[4]; 100 μM to 100 nM, hydrochloride",enhanced the interaction at higher concentrations; also recorded: increased the binding of ACE2 and RBD at high concentrations of 100 and 50 μM but blocked the interaction at low concentrations
same,IC50,"[4]; highest tested 100 μM, read-out: Estimated Relative IC50 against rhACE2 and RBD Interaction Assay, IC50_2",42.9 µM
same,IC50,"[4]; read-out: Estimated Relative IC50 against rhACE2 and RBD Interaction Assay, IC50_1",1.19 µM
same,change of ACE1 expression,ACE1,no changes
same,change of ACE2 expression,ACE2,no changes
same,change of ACE2 expression,ACE2; listed as BBH,does not affect
same,percent minimum viability,Vero E6 cells,103.87%
same,"Overall Gmean Days 1-4, N2 gRNA, rectal swabs",SARS-CoV-2 USA_WA1/2020 [5],1.00E+05 copies/swab
same,"Overall Gmean Days 1-4 higher than Group 3, N2 gRNA, rectal swabs",SARS-CoV-2 USA_WA1/2020 [5],2 fold
same,"Peak viral load versus Group 3, N2 gRNA, rectal swabs",SARS-CoV-2 USA_WA1/2020 [5],similar
same,"SARS-CoV-2 genome load, N2 gRNA, lungs",SARS-CoV-2 USA_WA1/2020 [5]; Day 4,6.20E+09 copies/gram
same,"SARS-CoV-2 genome load, N2 gRNA, trachea",SARS-CoV-2 USA_WA1/2020 [5]; Day 4,1.21E+09 copies/gram
same,"active replication load higher than Group 3, E sgRNA, lungs",SARS-CoV-2 USA_WA1/2020 [5]; Day 4,3 fold
same,"active replication load, E sgRNA, lungs",SARS-CoV-2 USA_WA1/2020 [5]; Day 4,4.41E+07 copies/gram
same,"active replication load, E sgRNA, nasal turbinate",SARS-CoV-2 USA_WA1/2020 [5]; Day 4,1.67E+08 copies/gram
same,"active replication load, E sgRNA, trachea",SARS-CoV-2 USA_WA1/2020 [5]; Day 4,2.58E+06 copies/gram
same,"genome load higher than Group 3, N2 gRNA, lungs",SARS-CoV-2 USA_WA1/2020 [5]; Day 4,3 fold
same,"replication load higher than Group 3, E sgRNA, trachea",SARS-CoV-2 USA_WA1/2020 [5]; Day 4,2 fold
same,"viral load higher than Group 3, N2 gRNA, trachea",SARS-CoV-2 USA_WA1/2020 [5]; Day 4,2 fold
same,serum IL-6 levels versus Group 3,"SARS-CoV-2 USA_WA1/2020 [5]; Day 4, ELISA, P<0.05",significantly lower
same,serum TNF-α versus Group 3,"SARS-CoV-2 USA_WA1/2020 [5]; Day −1, Day 2 (P<0.05), Day 4 (P<0.001)",significantly low
same,serum IL-10 levels between groups,"SARS-CoV-2 USA_WA1/2020 [5]; Days −1, 2, 4",No significance difference
same,incidence and severity of microscopic lesions versus vehicle control,SARS-CoV-2 USA_WA1/2020 [5]; lung histopathology,similar
same,lung viral load by TCID50 assay versus vehicle control,SARS-CoV-2 USA_WA1/2020 [5]; lung samples Day 4,No difference
same,"SARS-CoV-2 genome load, N2 gRNA, nasal turbinate",SARS-CoV-2 USA_WA1/2020 [5]; necropsy Day 4,3.57E+10 copies/gram
same,gross lesions in the lung,SARS-CoV-2 USA_WA1/2020 [5]; necropsy Day 4,reduced gross lesions in the lung
same,"Overall Gmean Days 1-4, E sgRNA, pharyngeal swabs","SARS-CoV-2 USA_WA1/2020 [5]; AMB 500, BHH 200 mg/kg/day PO",4.82E+04 copies/swab
same,"Overall Gmean Days 1-4 lower than Group 3, E sgRNA, pharyngeal swabs","SARS-CoV-2 USA_WA1/2020 [5]; AMB 500, BHH 200 mg/kg/day PO",2 fold
same,"Overall Gmean Days 1-4 viral load lower than Group 3, N2 gRNA, pharyngeal swabs","SARS-CoV-2 USA_WA1/2020 [5]; AMB 500, BHH 200 mg/kg/day PO",2 fold
same,"Overall Gmean viral load Days 1-4, N2 gRNA, pharyngeal swabs","SARS-CoV-2 USA_WA1/2020 [5]; AMB 500, BHH 200 mg/kg/day PO",4.93E+07 copies/swab
same,"Peak viral load lower than vehicle (Group 3), N2 gRNA, pharyngeal swabs","SARS-CoV-2 USA_WA1/2020 [5]; AMB 500, BHH 200 mg/kg/day PO",3 fold
same,"Peak viral replication load lower than Group 3, E sgRNA, pharyngeal swabs","SARS-CoV-2 USA_WA1/2020 [5]; AMB 500, BHH 200 mg/kg/day PO",4 fold
same,tolerability of administered doses,"SARS-CoV-2 USA_WA1/2020 [5]; AMB 500, BHH 200 mg/kg/day PO, up to 5 days",tolerated the administered doses well
same,"Peak viral load, N2 gRNA, pharyngeal swabs","SARS-CoV-2 USA_WA1/2020 [5]; AMB 500, BHH 200 mg/kg/day PO, peak Day 2 (AMB), Day 1 (BHH)",4.93E+07 copies/swab
same,"Peak viral replication load, E sgRNA, rectal swabs","SARS-CoV-2 USA_WA1/2020 [5]; peak Day 1 (AMB), Day 2 (BHH)",4.29 copies/swab
same,"Peak viral replication load, E sgRNA, pharyngeal swabs","SARS-CoV-2 USA_WA1/2020 [5]; peak Day 2 (AMB), Day 1 (BHH)",2.65E+05 copies/swab
same,"Peak viral load, N2 gRNA, rectal swabs",SARS-CoV-2 USA_WA1/2020 [5]; peak on Day 2,1.54E+05 copies/swab
same,CC50 at 72 h,"in vitro; 50% cytotoxic concentration (CC50), Vero E6, 72 hours, Examples A and B, highest concentration 30 μM",> 30 µM
same,CC50 at 72 h,"in vitro; Cytotoxicity CC50, Vero E6, 72 hours, Example C (Table 4)",58.3 µM
